Data: ChEMBL document CHEMBL4630907 (2021)

Key:
[1] = target: Beta-1 adrenergic receptor (Homo sapiens) (UniProt P08588); settings: Compound concentration 10.0 uM
[2] = target: Histone acetyltransferase KAT2B (Homo sapiens, UniProt Q92831); assay: PCAF DiscoverX BROMOscan
[3] = target: Beta-2 adrenergic receptor (Homo sapiens, UniProt P07550); settings: Compound concentration 10.0 uM
[4] = target: CREB-binding protein (Homo sapiens, UniProt Q92793); assay: CREBBP DiscoverX BROMOscan
[5] = target: T1, Bromodomain-containing protein 3 (Homo sapiens, UniProt Q15059); assay: TR-FRET assay (BRD3 BD2)
[6] = target: T1, Bromodomain-containing protein 3; assay: BRD3(1) DiscoverX BROMOscan
[7] = target: GABA-A receptor; anion channel; assay: GPCRScan assay: inhibition of GABAA; assay type: protein-complex assay, Rattus norvegicus; design: radioligand conc. used [nm] 9.50 – 25.0, parental cells brain tissue
[8] = target: Muscarinic acetylcholine receptor M3 (Homo sapiens) (UniProt P20309); settings: Compound concentration 10.0 uM
[9] = target: Beta-3 adrenergic receptor (Homo sapiens) (UniProt P13945); settings: Compound concentration 10.0 uM
[10] = target: Voltage-gated potassium channel, IKs; KCNQ1(Kv7.1)/KCNE1(MinK) (Homo sapiens, UniProt P15382+P51787); assay: Cross screening panel; assay type: protein-complex assay
[11] = target: T2, Transcription intermediary factor 1-alpha (Homo sapiens, UniProt O15164); assay: TRIM24(PHD,Bromo.) DiscoverX BROMOscan
[12] = target: Muscarinic acetylcholine receptor M1 (Homo sapiens) (UniProt P11229); settings: Compound concentration 10.0 uM
[13] = target: Alpha-1A adrenergic receptor (Homo sapiens) (UniProt P35348); settings: Compound concentration 10.0 uM
[14] = target: GABA-A receptor; anion channel (Rattus norvegicus) (UniProt O09028+P15431+P18506+P18508+P19969+P20236+P23574+P23576+P28471+P28473+P30191+P62813+P63079+P63138+Q91ZM7+Q9ES14); settings: Compound concentration 10.0 uM
[15] = target: Sodium-dependent dopamine transporter (Homo sapiens) (UniProt Q01959); settings: Compound concentration 10.0 uM
[16] = target: Bromodomain and WD repeat-containing protein 1 (Homo sapiens, UniProt Q9NSI6); assay: WDR9(2) DiscoverX BROMOscan
[17] = target: Sigma non-opioid intracellular receptor 1 (Homo sapiens) (UniProt Q99720); settings: Compound concentration 10.0 uM
[18] = target: ATPase family AAA domain-containing protein 2B (Homo sapiens, UniProt Q9ULI0); assay: ATAD2B DiscoverX BROMOscan
[19] = target: Nucleosome-remodeling factor subunit BPTF (Homo sapiens, UniProt Q12830); assay: FALZ DiscoverX BROMOscan
[20] = target: T3, D(3) dopamine receptor (Homo sapiens, UniProt P35462); assay: GPCRScan assay: inhibition of D3; design: radioligand conc. used [nm] 0.5 – 1.8, parental cells HEKT
[21] = target: Histamine H1 receptor (Homo sapiens, UniProt P35367); settings: Compound concentration 10.0 uM
[22] = target: Histamine H4 receptor (Homo sapiens) (UniProt Q9H3N8); settings: Compound concentration 10.0 uM
[23] = target: ATPase family AAA domain-containing protein 2 (Homo sapiens, UniProt Q6PL18); assay: ATAD2A DiscoverX BROMOscan
[24] = target: Bromodomain-containing protein 9 (Homo sapiens, UniProt Q9H8M2); assay: BRD9 DiscoverX BROMOscan
[25] = target: Bromodomain adjacent to zinc finger domain protein 2A (Homo sapiens, UniProt Q9UIF9); assay: BAZ2A DiscoverX BROMOscan
[26] = target: T2, Transcription intermediary factor 1-alpha; assay: TRIM24(BROMO.) DiscoverX BROMOscan
[27] = target: T3, D(3) dopamine receptor; settings: Compound concentration 10.0 uM
[28] = target: Transcription initiation factor TFIID subunit 1 (Homo sapiens, UniProt P21675); assay: TAF1(2) DiscoverX BROMOscan
[29] = target: 5-hydroxytryptamine receptor 5A (Homo sapiens) (UniProt P47898); settings: Compound concentration 10.0 uM
[30] = target: Sodium-dependent noradrenaline transporter (Homo sapiens, UniProt P23975); settings: Compound concentration 10.0 uM
[31] = target: 5-hydroxytryptamine receptor 1B (Homo sapiens, UniProt P28222); settings: Compound concentration 10.0 uM

T3 sequence (P35462 whole entry): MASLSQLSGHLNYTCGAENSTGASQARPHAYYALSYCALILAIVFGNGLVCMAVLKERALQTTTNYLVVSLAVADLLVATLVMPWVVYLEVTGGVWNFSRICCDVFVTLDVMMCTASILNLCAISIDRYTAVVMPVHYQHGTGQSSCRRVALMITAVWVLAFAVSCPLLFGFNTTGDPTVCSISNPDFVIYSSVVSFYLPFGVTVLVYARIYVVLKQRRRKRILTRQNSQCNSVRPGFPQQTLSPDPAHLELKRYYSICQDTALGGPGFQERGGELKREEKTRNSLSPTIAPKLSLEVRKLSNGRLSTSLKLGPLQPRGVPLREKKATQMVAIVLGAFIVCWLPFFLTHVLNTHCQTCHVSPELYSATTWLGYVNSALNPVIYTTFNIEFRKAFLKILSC
T2 sequence (O15164 whole entry): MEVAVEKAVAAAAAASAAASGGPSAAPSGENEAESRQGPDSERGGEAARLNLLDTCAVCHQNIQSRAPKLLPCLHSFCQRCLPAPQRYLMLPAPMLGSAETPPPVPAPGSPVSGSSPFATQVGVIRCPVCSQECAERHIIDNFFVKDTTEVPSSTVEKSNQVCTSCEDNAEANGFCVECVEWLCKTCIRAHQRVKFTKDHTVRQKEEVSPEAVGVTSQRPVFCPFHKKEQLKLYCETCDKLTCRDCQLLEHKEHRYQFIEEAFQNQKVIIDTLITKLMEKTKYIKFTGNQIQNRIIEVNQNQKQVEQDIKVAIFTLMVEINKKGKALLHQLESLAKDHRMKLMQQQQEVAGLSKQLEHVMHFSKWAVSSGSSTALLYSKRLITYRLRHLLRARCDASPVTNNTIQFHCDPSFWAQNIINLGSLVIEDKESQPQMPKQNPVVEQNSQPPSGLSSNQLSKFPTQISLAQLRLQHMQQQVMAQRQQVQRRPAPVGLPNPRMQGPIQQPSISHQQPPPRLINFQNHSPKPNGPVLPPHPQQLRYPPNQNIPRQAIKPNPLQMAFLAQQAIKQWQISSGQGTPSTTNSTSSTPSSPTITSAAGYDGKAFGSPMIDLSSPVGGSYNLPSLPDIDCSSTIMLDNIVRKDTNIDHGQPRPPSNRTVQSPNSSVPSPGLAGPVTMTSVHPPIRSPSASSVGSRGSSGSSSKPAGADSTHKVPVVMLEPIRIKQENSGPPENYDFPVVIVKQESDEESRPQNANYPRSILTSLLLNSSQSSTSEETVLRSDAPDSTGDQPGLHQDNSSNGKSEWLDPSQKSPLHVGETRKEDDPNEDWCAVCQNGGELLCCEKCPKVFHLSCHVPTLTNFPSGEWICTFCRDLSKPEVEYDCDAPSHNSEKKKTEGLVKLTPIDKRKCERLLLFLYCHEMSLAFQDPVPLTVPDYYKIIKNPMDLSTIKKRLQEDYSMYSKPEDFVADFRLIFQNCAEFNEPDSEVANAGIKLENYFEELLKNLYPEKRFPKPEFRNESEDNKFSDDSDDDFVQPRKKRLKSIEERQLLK
T1 sequence (Q15059 whole entry): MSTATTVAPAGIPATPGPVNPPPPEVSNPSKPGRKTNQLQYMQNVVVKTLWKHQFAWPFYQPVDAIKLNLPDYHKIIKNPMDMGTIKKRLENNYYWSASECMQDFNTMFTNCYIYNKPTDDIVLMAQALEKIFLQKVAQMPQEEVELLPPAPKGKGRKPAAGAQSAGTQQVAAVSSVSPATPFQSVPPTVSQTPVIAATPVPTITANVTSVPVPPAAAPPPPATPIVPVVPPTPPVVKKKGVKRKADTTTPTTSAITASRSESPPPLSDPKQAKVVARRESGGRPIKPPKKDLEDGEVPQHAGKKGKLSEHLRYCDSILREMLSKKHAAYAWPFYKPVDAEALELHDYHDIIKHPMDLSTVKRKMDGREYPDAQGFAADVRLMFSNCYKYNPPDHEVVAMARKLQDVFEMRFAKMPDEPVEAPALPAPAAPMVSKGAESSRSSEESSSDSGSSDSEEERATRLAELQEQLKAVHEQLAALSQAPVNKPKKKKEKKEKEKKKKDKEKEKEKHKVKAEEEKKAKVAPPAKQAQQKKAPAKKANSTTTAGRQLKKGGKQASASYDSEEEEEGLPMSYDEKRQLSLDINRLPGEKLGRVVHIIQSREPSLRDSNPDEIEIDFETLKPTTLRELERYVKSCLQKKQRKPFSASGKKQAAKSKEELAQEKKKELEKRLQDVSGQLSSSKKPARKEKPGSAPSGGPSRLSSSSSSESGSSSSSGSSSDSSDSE
ATPase family AAA domain-containing protein 2, sequence (Q6PL18 whole entry, the tested form may be a part): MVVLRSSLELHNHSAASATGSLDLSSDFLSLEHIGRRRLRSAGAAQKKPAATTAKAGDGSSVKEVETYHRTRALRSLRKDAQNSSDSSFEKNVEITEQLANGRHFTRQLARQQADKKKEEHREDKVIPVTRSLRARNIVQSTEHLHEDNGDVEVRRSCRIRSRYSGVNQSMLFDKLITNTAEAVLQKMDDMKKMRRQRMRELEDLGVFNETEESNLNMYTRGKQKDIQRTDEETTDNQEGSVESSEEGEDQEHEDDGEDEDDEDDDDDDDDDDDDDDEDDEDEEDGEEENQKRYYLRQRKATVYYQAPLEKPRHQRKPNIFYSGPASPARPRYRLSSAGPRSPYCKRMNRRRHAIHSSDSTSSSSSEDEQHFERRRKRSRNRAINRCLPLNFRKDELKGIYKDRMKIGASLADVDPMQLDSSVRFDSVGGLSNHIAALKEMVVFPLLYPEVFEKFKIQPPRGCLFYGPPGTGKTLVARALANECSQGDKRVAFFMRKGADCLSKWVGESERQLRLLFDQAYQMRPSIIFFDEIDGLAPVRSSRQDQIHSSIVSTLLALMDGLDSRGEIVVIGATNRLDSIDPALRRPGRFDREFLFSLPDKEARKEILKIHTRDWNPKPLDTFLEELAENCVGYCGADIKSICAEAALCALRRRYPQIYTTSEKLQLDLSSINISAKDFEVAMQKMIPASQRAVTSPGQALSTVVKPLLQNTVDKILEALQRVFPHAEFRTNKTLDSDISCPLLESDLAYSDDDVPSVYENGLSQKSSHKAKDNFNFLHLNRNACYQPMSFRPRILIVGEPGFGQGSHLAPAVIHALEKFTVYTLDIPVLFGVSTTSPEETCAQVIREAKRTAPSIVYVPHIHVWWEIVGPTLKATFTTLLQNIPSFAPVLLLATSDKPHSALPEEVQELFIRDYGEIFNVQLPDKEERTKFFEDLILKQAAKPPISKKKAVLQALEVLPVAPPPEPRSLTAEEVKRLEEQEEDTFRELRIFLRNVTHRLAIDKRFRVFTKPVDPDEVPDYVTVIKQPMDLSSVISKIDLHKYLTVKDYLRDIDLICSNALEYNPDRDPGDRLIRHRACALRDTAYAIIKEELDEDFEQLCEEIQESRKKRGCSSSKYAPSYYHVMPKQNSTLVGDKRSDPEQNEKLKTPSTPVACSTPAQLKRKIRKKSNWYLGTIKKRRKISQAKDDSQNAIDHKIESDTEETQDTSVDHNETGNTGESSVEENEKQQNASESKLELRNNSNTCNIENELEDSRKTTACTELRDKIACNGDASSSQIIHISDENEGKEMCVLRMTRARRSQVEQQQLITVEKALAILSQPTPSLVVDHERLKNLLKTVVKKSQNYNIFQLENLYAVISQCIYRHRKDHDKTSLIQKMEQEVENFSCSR
ATPase family AAA domain-containing protein 2B, sequence (Q9ULI0 whole entry, the tested form may be a part): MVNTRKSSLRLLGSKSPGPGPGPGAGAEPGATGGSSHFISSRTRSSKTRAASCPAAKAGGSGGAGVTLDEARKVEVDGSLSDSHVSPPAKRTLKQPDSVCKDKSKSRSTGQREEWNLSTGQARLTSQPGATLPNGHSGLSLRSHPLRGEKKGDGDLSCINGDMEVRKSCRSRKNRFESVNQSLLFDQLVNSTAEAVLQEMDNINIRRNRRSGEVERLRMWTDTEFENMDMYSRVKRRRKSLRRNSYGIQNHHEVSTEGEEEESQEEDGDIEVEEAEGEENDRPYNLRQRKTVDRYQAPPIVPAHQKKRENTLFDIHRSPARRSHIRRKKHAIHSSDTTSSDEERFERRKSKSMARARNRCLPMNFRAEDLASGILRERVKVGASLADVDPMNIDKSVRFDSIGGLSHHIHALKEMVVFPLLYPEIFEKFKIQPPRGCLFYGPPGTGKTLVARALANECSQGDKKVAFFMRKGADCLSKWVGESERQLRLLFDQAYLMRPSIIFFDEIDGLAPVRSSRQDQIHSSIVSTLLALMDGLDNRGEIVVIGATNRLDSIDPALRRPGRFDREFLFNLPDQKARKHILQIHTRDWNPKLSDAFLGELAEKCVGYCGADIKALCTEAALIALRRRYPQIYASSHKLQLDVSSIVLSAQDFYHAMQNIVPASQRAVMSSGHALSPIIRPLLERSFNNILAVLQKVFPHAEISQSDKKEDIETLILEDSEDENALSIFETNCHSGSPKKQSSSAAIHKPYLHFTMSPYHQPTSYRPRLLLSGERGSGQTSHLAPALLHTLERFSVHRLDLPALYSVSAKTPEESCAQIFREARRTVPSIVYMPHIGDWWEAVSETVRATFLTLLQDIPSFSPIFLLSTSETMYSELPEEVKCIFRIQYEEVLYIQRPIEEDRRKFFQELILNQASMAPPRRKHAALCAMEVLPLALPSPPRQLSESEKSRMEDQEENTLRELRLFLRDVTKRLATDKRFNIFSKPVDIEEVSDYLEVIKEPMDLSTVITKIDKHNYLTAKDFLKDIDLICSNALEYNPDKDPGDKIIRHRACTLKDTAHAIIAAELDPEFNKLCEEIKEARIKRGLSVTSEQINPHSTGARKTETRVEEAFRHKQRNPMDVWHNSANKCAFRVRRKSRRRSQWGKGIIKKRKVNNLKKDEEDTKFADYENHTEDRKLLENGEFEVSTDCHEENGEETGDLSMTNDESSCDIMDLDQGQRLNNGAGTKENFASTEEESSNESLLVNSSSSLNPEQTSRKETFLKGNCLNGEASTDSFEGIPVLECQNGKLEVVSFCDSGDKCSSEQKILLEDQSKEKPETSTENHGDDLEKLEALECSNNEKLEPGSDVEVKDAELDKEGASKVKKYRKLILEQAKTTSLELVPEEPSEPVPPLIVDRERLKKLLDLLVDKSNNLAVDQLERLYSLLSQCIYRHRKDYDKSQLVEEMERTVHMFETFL

COCc1nc2cnc3cc(-c4c(C)noc4C)c(OC[C@H]4CCNC4)cc3c2n1[C@H](C)c1ccccc1 [GSK778]
inhibition [1]: 4.82%
Kd [2]: 33 µM
inhibition [3]: 18.4%
Kd [4]: 3.8 µM
IC50 [5]: 1.21 µM (not active)
Kd [6]: 0.005 µM
Ki [7]: 1.6 µM
pKi [7]: 5.81
inhibition [8]: -3.35%
inhibition [9]: 10.5%
IC50 [10]: > 25.1 µM
Kd [11]: 30 µM
inhibition [12]: -1.37%
inhibition [13]: 0.31%
inhibition [14]: 52.7%
inhibition [15]: 27.9%
Kd [16]: 30 µM
inhibition [17]: 38.5%
Kd [18]: 25 µM
Kd [19]: 30 µM
Ki ([20]; read-out: Ki): 0.486 µM
Ki ([20]; read-out: pKi (converted)): 0.407 µM
inhibition [21]: 0.33%
inhibition [22]: 29.3%
Kd [23]: 30 µM
Kd [24]: 30 µM
Kd [25]: 30 µM
Kd [26]: 30 µM
inhibition [27]: 62.4%
Kd [28]: 30 µM
inhibition [29]: 21.5%
inhibition [30]: 34.5%
inhibition [31]: 8.66%
